Experimental data: patent publication US7550430B2, “Cationic antimicrobial peptides and compositions” (E.I. du Pont de Nemours and Company, priority 2003, dated 2009)
Values after ≈ are worked out from the molar mass of the structure shown. Where two headings read alike, the source gives them in different places. Marks after values point to notes of the source that are not given here. Where a SMILES comes first, the peptide text is derived from it. Bridges are numbered along the chain shown (N, C = ends). Where no end group is shown, it is not given here. The star is where a group is joined. Acm = CC(=O)NC*

Legend:
Format in all cases: cell-based
E. coli ATCC 25922 = conditions: for MIC: ATCC 25922, 24 h; for MIC E. coli 25922 Expt. #1 / MIC E. coli 25922 Expt. #2: ATCC 25922
Description: (§1) The minimal inhibitory concentration (MIC) for the peptides was determined in sterile microtiter plates in a final volume of 200 μL using Trypticase Soy Broth (TSB; Difco Laboratories, Detroit, Mich.) as the growth medium. Serial two-fold dilutions of the peptide stock were made in the plate wells such that concentrations ranged from 512 to 2 μg/mL in a volume of 100 μL. Each well was then inoculated with 100 μL of a dilute suspension of bacteria in TSB yielding a final concentration of 1×10^4 bacteria/mL. The final peptide concentrations ranged from […]. The assay plates were incubated at 37° C. for 24 hours inside a Bioscreen C microtitre plate reader (Thermo Labsystems; Vantaa, Finland). Optical Density (OD) of the medium at 600 nm was recorded every 20 minutes to monitor cell growth. The lowest concentration of peptide preventing bacterial growth during the 24 hr period was defined as the MIC.

K. pneumoniae 700603 = test system: K. pneumoniae 700603
Description: as §1

P. aeruginosa 27853 = test system: P. aeruginosa 27853
Description: as §1

S. aureus 29213 = test system: S. aureus 29213
Description: as §1

E. coli ATCC #25922 = conditions: ATCC #25922, 4 h
Description: Antimicrobial activity of the peptide immobilized on polymer substrates was evaluated in a Shake Flask Test. Test substance (polymer with immobilized peptide) or control substance (polymer alone) (50 mg suspended in […] phosphate buffer (pH 7)) was added to a sterile culture plate well; a dilute suspension of bacteria (1×10^5 cells/mL final concentration in the well) in 0.6 mM phosphate buffer was added to the well for a final volume of 5 mL. The plate was shaken on a platform shaker at room temperature. At specified times (4 hours and 24 hours), an aliquot was removed from the culture plate (0.1 mL, in triplicates), and serial dilutions ranging from 1 to 100 fold were made for enumeration of cells on trypticase soy agar (TSA) plates. The TSA plates were incubated for 20 hr at 37° C., and the number of colony forming units (CFU) per mL was determined.

Row | Compound | MIC (E. coli ATCC 25922) [µg/mL] | MIC E. coli 25922 Expt. #1 (E. coli ATCC 25922) | MIC E. coli 25922 Expt. #2 (E. coli ATCC 25922) [µg/mL] | MIC K. pneumoniae 700603 (K. pneumoniae 700603) [µg/mL] | MIC P. aeruginosa 27853 (P. aeruginosa 27853) [µg/mL] | MIC S. aureus 29213 (S. aureus 29213; 29213) [µg/mL] | log reduction in E. coli CFU/mL (E. coli ATCC #25922) [log] | MIC S. aureus 29213 (S. aureus 29213; ATCC 29213)
1 | CC(=O)NCSC[C@H](NC(=O)[C@H](CC(C)C)NC(=O)[C@H](CCCCN)NC(=O)[C@H](CC(C)C)NC(=O)[C@H](CC(C)C)NC(=O)[C@H](CCCCN)NC(=O)[C@H](CCCCN)NC(=O)[C@H](CC(C)C)NC(=O)CNC(=O)[C@H](CCCCN)NC(=O)[C@H](CC(C)C)NC(=O)[C@H](CC(C)C)NC(=O)[C@H](CCCCN)NC(=O)[C@H](CCCCN)NC(=O)[C@H](CC(C)C)NC(=O)[C@@H](N)CSCNC(C)=O)C(=O)O [SEQ ID NO:25, CLKKLLKGLKKLLKLC] (H-C(Acm)LKKLLKGLKKLLKLC(Acm)-OH; N-terminus and C-terminus assumed) | 8 (≈ 4.03 µM) | – | – | – | – | – | – | –
2 | CC(C)C[C@@H]1NC(=O)CNC(=O)[C@H](CCCCN)NC(=O)[C@H](CC(C)C)NC(=O)[C@H](CC(C)C)NC(=O)[C@H](CCCCN)NC(=O)[C@H](CCCCN)NC(=O)[C@H](CC(C)C)NC(=O)[C@@H](NC(=O)[C@@H](N)CCCCN)CSSC[C@@H](C(=O)O)NC(=O)[C@H](CC(C)C)NC(=O)[C@H](CCCCN)NC(=O)[C@H](CC(C)C)NC(=O)[C@H](CC(C)C)NC(=O)[C@H](CCCCN)NC(=O)[C@H](CCCCN)NC1=O [SEQ ID NO:31] (H-KCLKKLLKGLKKLLKLC-OH; disulfide 2-17; N-terminus and C-terminus assumed) | 16 (≈ 8.13 µM) | – | – | – | – | – | – | –
3 | CC(C)C[C@@H]1NC(=O)CNC(=O)[C@H](CCCCN)NC(=O)[C@H](CC(C)C)NC(=O)[C@H](CC(C)C)NC(=O)[C@H](CCCCN)NC(=O)[C@H](CCCCN)NC(=O)[C@H](CC(C)C)NC(=O)[C@@H](N)CSSC[C@@H](C(=O)O)NC(=O)[C@H](CC(C)C)NC(=O)[C@H](CCCCN)NC(=O)[C@H](CC(C)C)NC(=O)[C@H](CC(C)C)NC(=O)[C@H](CCCCN)NC(=O)[C@H](CCCCN)NC1=O [SEQ ID NO:38] (H-CLKKLLKGLKKLLKLC-OH; disulfide 1-16; N-terminus and C-terminus assumed) | 32 (≈ 17.4 µM) | – | – | – | – | – | – | –
4 | CC(=O)NCSC[C@H](NC(=O)[C@H](CC(C)C)NC(=O)[C@H](CCCCN)NC(=O)[C@H](CC(C)C)NC(=O)[C@H](CC(C)C)NC(=O)[C@H](CCCCN)NC(=O)[C@H](CCCCN)NC(=O)[C@H](CC(C)C)NC(=O)CNC(=O)[C@H](CCCCN)NC(=O)[C@H](CC(C)C)NC(=O)[C@H](CC(C)C)NC(=O)[C@H](CCCCN)NC(=O)[C@H](CCCCN)NC(=O)[C@H](CC(C)C)NC(=O)[C@H](CSCNC(C)=O)NC(=O)[C@@H](N)CCCCN)C(=O)O [compound 17, KC(Acm)LKKLLKGLKKLLKLC(Acm)] (H-KC(Acm)LKKLLKGLKKLLKLC(Acm)-OH; N-terminus and C-terminus assumed) | 4 (≈ 1.89 µM) | – | – | – | – | – | – | –
5 | KGGKKLLKGLKKLLKL [SEQ ID NO:43, KGGKKLLKGLKKLLKL] | – | <=4* μg/mL | 2 | 64 | 16 | 256 | – | –
6 | KGLKKGLKGLKKLLKL [SEQ ID NO:40, KGLKKGLKGLKKLLKL] | 256 | – | – | – | – | – | – | –
7 | KGLKKGLKLLKKLLKL [SEQ ID NO:2, KGLKKGLKLLKKLLKL] | – | <=4* μg/mL | 2 | 4 to 8 | 8 | 64 to 128 | – | –
8 | KGLKKLGKLLKKLLKL [SEQ ID NO:42, KGLKKLGKLLKKLLKL] | – | <=4* μg/mL | 2 | 4 to 8 | 8 to 16 | 64 | – | –
9 | KGLKKLLKGLKKLLKL [SEQ ID NO:1, KGLKKLLKGLKKLLKL] | 4 | – | 2 to 4 | 8 to 16 | 2 | 8 | 4.6 | –
10 | KGLKKLLKLGKKLLKL [SEQ ID NO:3, KGLKKLLKLGKKLLKL] | – | <=4* μg/mL | 2 | 8 | 8 | 64 to 128 | – | –
11 | KGLKKLLKLLKKGLKL [SEQ ID NO:5, KGLKKLLKLLKKGLKL] | – | <=4* μg/mL | 2 | 8 to 16 | 8 | – | – | 32+ μg/mL
